Data on four compounds can be found in patent EP0428272A2, “Trifluorobenzodiazepine compounds for use in therapy by intraoral administration” (Ellinwood, Everett Hews, priority 1989, dated 1991).

Structures are written as SMILES. Like-named read-outs stand apart in the source and are kept apart here.

For orientation: Tmax means the time at which the peak concentration occurs. In general, Cmax refers to the highest concentration seen after dosing. What is called AUC is concentration integrated over time. A higher AUC goes with high exposure.

Series [1] can be described thus: Pharmacokinetics in blood plasma after a single sublingual or per oral swallowed dose of quazepam 15 mg standard tablet. It is filed as in vivo, volunteer adult humans. Conditions: for half-life / Tmax / Cmax / AUC: human; for half-life: plasma, 15 mg; for half-life / Tmax / Cmax / AUC / CL/F / Lag time: mean ± SD; for Tmax: time to Cmax; for Cmax: quazepam peak plasma concentration; for AUC: quazepam, area under plasma concentration-time curve; for CL/F: quazepam clearance. As for the experimental part:
Test results will now be described. Testing was carried out using volunteer adult humans. Standard tablets containing, as active ingredient, solely quazepam or solely halazepam, were used. Such tablets were intended by their manufacturers to be swallowed but dissolved adequately in the mouth to permit the intraoral testing. • Figure 1 is a graph illustrating the concentration of quazepam (Q) and N-desalkyl-2-oxoquazepam (DOQ) in the blood plasma over 96 hours following a single sublingual dose (SL) or per oral swallowed dose (PO) of quazepam in a 15 mg standard tablet. • Figure 2 is a graph illustrating the concentration of quazepam (Q) and N-desalkyl-2-oxoquazepam (DOQ) in the blood plasma over 210 hours following a single sublingual dose (SL) or per oral swallowed dose (PO) of quazepam in a 15 mg standard tablet. • Figure 3 is a graph of computer simulated concentration levels of quazepam and N-desalkyl-2-oxoquazepam in the blood following sublingual and oral swallowed doses of quazepam (15 mg standard tablet) once a day for a 15 day period illustrating the marked reduction in accumulated levels of desalkyloxoquazepam with sublingual dosing; • Figure 4 is a graph illustrating the concentration of halazepam (HZ) and N-desalkyl-3-hydroxy-halazepam (ND) in the blood over 96 hours following a single sublingual dose (SL) or per oral swallowed dose (PO) of halazepam in a 20 mg standard tablet. • Figure 5 is a graph illustrating the concentration of halazepam (HZ) and N-desalkyl-3-hydroxy-halazepam (ND) in the blood over 240 hours following a single sublingual dose (SL) or per oral swallowed (PO) of halazepam in a 20 mg standard tablet; and • Figure 6 is a flow chart of the method of the present invention.
This change in concentrations for the two compounds can be seen with reference to Figure 1 and Figure 2 of the drawings where the differences in the parent compound Q and the metabolite DOQ for both the oral and sublingual dosing is shown. In Figure 3, by use of standard mutliple Q dose simulations, the differences in accumulation of Q and DOQ for sublingual versus oral dosing over 15 days is shown. With chronic dosing it is readily apparent that after 15 days the DOQ level, following oral administration, has reached levels that are associated with the threshold for impairing ataxic and incoordination affects (especially if larger doses are given).
In Table 1 and Table 2, set forth below, the average pharmacokinetic parameters for both Q and DOQ for both oral and sublingual routes of administration are set forth: TABLE I

A short description of series [2]: Concentration in blood after a single sublingual or per oral swallowed dose of halazepam 20 mg standard tablet. In kind it is in vivo, volunteer adult humans. Conditions: sublingual administration of halazepam versus oral. As for the experimental part:
Test results will now be described. Testing was carried out using volunteer adult humans. Standard tablets containing, as active ingredient, solely quazepam or solely halazepam, were used. […]

Where [3] appears, read: quazepam in plasma, oral quazepam 15 mg.
[4] abbreviates: quazepam in plasma, sublingual quazepam 15 mg.

For `Fc1ccccc1C1=NCC(=S)N(CC(F)(F)F)c2ccc(Cl)cc21` [quazepam, 7-chloro-1-(2,2,2-trifluorethyl)-5-(o-fluorophenyl)-1,3-dihydro-2H-1,4-benzodiazepine-2-thione], the half-life in series [1] (quazepam in plasma, absorption half-life, sublingual quazepam 15 mg, read-out: t1/2 Ka (converted)) was 0.27 ± 0.1 h; in series [1] (quazepam in plasma, rapid distribution half-life, sublingual quazepam 15 mg, read-out: t1/2 λ₁ (converted)) it was 1.44 ± 0.45 h; in series [1] (quazepam in plasma, terminal elimination half-life, sublingual quazepam 15 mg, read-out: t1/2 λ₂ (converted)), 27.7 ± 7.18 h; in series [1] (po, quazepam in plasma, absorption half-life, oral quazepam 15 mg, read-out: t1/2 Ka (converted)), 0.77 ± 0.23 h; in series [1] (po, quazepam in plasma, rapid distribution half-life, oral quazepam 15 mg, read-out: t1/2 λ₁ (converted)), 1.73 ± 0.65 h; in series [1] (po, quazepam in plasma, terminal elimination half-life, oral quazepam 15 mg, read-out: t1/2 λ₂ (converted)), 24.6 ± 8.35 h. Moreover, the results for the Tmax in series [1] (setting [3]) and in series [1] (setting [4]) were 2.57 ± 1.69 h and 0.78 ± 0.31 h, respectively. Moreover, the figures for the Cmax in series [1] (oral quazepam 15 mg) and in series [1] (sublingual quazepam 15 mg) were 26.7 ± 6.83 ng/mL and 42.4 ± 10.4 ng/mL, respectively. Further, the values for the AUC in series [1] (oral quazepam 15 mg) and in series [1] (sublingual quazepam 15 mg) were 473 ± 239 ng·h/mL and 1460 ± 299 ng·h/mL, respectively. The CL/F in series [1] (oral quazepam 15 mg) turned out to be 37.56 ± 16.89 h⁻¹; in series [1] (sublingual quazepam 15 mg) it was 8.78 ± 5.25 h⁻¹. For the same compound, the results for the Lag time in series [1] (setting [3]) and in series [1] (setting [4]) were 0.52 ± 0.28 h and 0.18 ± 0.05 h, respectively. In addition, the “increase of availability of quazepam” value in series [1] (sublingual dosing in contrast to oral dosing of quazepam) is given as “about 60%”.

With `O=C1CN=C(c2ccccc2F)c2cc(Cl)ccc2N1` [N-DESALKYL-2-OXOQUAZEPAM, N-desalkyl-2-oxoquazepam], the Lag time in series [1] (metabolite N-desalkyl-2-oxoquazepam in plasma, oral quazepam 15 mg) turned out to be 0.66 ± 0.32 h; in series [1] (metabolite N-desalkyl-2-oxoquazepam in plasma, sublingual quazepam 15 mg) it was 1.74 ± 0.86 h. For the same compound, in series [1] (sublingual dosing of quazepam versus oral), the “DOQ level relative to oral quazepam administration levels” value is “about one-half”.

Take `O=C1CN=C(c2ccccc2)c2cc(Cl)ccc2N1CC(F)(F)F` [halazepam, 7-chloro-1,3 dihydro-5-phenyl-1-1-(2,2,2-trifluoroethyl)-2H-1,4-benzodiazepine-2-one]: the availability of halazepam result in series [2] is “significantly increased”.

As to `O=C1Nc2ccc(Cl)cc2C(c2ccccc2)=NC1O` (stereo not shown) [N-dealkyl-hydroxy-halazepam, N-desalkyl-3-hydroxy-halazepam], the “level of metabolite N-dealkyl-hydroxy-halazepam” value in series [2] is listed as “reducing”.
